Experimental data taken from ChEMBL document CHEMBL5230103, “Hydroxamic acid hybrids as the potential anticancer agents: An Overview” (Eur J Med Chem, 2020).
pIC50: −log10 of the molar value.

Columns and labels:
NCI-H23 [1] = test: Potency index, ratio of vorinostat IC50 to test compound IC50 for cytotoxicity against human NCI-H23 cells assessed as inhibition of cell growth by MTT assay; assay type: functional
SW-620 [2] = test: Potency index, ratio of vorinostat IC50 to test compound IC50 for cytotoxicity against human SW620 cells assessed as inhibition of cell growth by MTT assay; assay type: functional
NCI-H23 [3] = test: Cytotoxicity against human NCI-H23 cells assessed as inhibition of cell growth by MTT assay; assay type: functional, cell-based
PC-3 [4] = test: Cytotoxicity against human PC-3 cells assessed as inhibition of cell growth by MTT assay; assay type: functional, cell-based
Histone deacetylase = test: Inhibition of HDAC (unknown origin); assay type: protein assay, Homo sapiens
PC-3 [5] = test: Potency index, ratio of vorinostat IC50 to test compound IC50 for cytotoxicity against human PC-3 cells assessed as inhibition of cell growth by MTT assay; assay type: functional
SW-620 [6] = test: Cytotoxicity against human SW620 cells assessed as inhibition of cell growth by MTT assay; assay type: functional, cell-based
PC-3 [7] = test: Cytotoxicity against human PC-3 cells assessed as inhibition of cell growth by SRB assay; assay type: functional, cell-based
MV4-11 = test: Cytotoxicity against human MV4-11 cells assessed as inhibition of cell growth by SRB assay; assay type: functional, cell-based
Histone deacetylase 2 = Histone deacetylase 2 (Homo sapiens, UniProt Q92769); test: Inhibition of HDAC2 (unknown origin)
MCF7 [8] = test: Cytotoxicity against human MCF7 cells assessed as inhibition of cell growth by MTT assay; assay type: functional, cell-based
ASPC1 = test: Cytotoxicity against human ASPC1 cells assessed as inhibition of cell growth by MTT assay; assay type: functional, cell-based
MDA-MB-231 = test: Cytotoxicity against human MDA-MB-231 cells assessed as inhibition of cell growth by MTT assay; assay type: functional, cell-based
A549 = test: Cytotoxicity against human A549 cells assessed as inhibition of cell growth by MTT assay; assay type: functional, cell-based
K562 = test: Cytotoxicity against human K562 cells assessed as inhibition of cell growth by MTT assay; assay type: functional, cell-based
RPMI-8226 = test: Cytotoxicity against human RPMI-8226 cells assessed as inhibition of cell growth by MTS assay; assay type: functional, cell-based
HCT-116 = test: Cytotoxicity against human HCT-116 cells assessed as inhibition of cell growth by MTT assay; assay type: functional, cell-based
HepG2 [9] = test: Cytotoxicity against human HepG2 cells assessed as inhibition of cell growth by MTT assay; assay type: functional, cell-based
HepG2 [10] = test: Cytotoxicity against human HepG2 cells assessed as inhibition of cell growth measured after 72 hrs by MTT assay; assay type: functional, cell-based; conditions: HepG2, 72 h
MCF7 [11] = test: cells; assay type: functional, cell-based; conditions: Homo sapiens, MCF7, 72 h
Description: Cytotoxicity against human MCF7 cells assessed as inhibition of cell growth measured after 72 hrs by MTT assay

U2OS = test: cells; assay type: functional, cell-based; conditions: Homo sapiens, 72 h
Description: Cytotoxicity against human U2OS cells assessed as inhibition of cell growth measured after 72 hrs by MTT assay

Chain of Histone deacetylase 2 (Q92769 whole entry): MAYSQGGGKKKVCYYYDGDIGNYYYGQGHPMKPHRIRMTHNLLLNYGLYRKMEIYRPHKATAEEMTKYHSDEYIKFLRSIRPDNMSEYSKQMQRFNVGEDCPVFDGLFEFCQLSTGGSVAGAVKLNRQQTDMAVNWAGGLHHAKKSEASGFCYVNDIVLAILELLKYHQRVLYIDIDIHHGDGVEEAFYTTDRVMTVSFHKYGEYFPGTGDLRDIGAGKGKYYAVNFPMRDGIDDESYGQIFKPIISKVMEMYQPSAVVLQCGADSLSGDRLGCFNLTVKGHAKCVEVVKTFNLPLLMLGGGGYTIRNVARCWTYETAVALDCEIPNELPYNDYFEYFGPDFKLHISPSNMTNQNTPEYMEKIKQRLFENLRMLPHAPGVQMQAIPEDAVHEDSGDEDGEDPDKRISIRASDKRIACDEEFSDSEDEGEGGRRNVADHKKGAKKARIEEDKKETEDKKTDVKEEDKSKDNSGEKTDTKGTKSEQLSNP

Q: Which “Ratio IC50” value (NCI-H23 [1]) does the source give for O=C(/C=C/c1ccc(Cn2cnc3cc(F)ccc3c2=O)cc1)NO here?
A: The value was greater than 3.

Q: And the “Ratio IC50” value (SW-620 [2])?
A: Its value is greater than 3.

Q: What about the pIC50 (NCI-H23 [3]) of the same molecule?
A: The pIC50 was 6.21.

Q: And the pIC50 (PC-3 [4])?
A: Its pIC50 is 6.21.

Q: What about the IC50 (Histone deacetylase) of the same molecule?
A: The IC50 was 150 nM.

Q: And the “Ratio IC50” value (PC-3 [5])?
A: Its value is greater than 3.

Q: And the pIC50 (SW-620 [6])?
A: Its pIC50 is 6.21.

Q: Cc1nc2ccc(Cl)cc2c(=O)n1Cc1ccc(C(=O)NO)cc1 was tested. Which “Ratio IC50” value (NCI-H23 [1]) did it give?
A: The value was greater than 3.

Q: And the “Ratio IC50” value (SW-620 [2])?
A: The value was greater than 3.

Q: And the pIC50 (NCI-H23 [3])?
A: The pIC50 was 6.21.

Q: What about the pIC50 (PC-3 [4]) of the same molecule?
A: The pIC50 was 6.21.

Q: And the IC50 (Histone deacetylase)?
A: Its IC50 is 760 nM.

Q: And the “Ratio IC50” value (PC-3 [5])?
A: Its value is greater than 3.

Q: What about the pIC50 (SW-620 [6]) of the same molecule?
A: Its pIC50 is 6.21.

Q: CC(C)n1cnc2c(-c3ccc(OCCCCCCC(=O)NO)cc3)nc(N3CCOCC3)nc21 was tested. Which IC50 (Histone deacetylase) did it give?
A: Its IC50 is 278 nM.

Q: What about the pIC50 (PC-3 [7]) of the same molecule?
A: The pIC50 was 6.01.

Q: And the pIC50 (MV4-11)?
A: The pIC50 was 6.01.

Q: How did the pIC50 (Histone deacetylase 2) turn out when O=C(CCCn1cc(CN2C(=O)/C(=N\O)c3cc(F)ccc32)nn1)NO was run?
A: The pIC50 was 6.04.

Q: CC(C)n1cnc2c(-c3cccc(OCCCCCCCC(=O)NO)c3)nc(N3CCOCC3)nc21 was tested. Which IC50 (Histone deacetylase) did it give?
A: Its IC50 is 35 nM.

Q: And the pIC50 (PC-3 [7])?
A: Its pIC50 is 6.80.

Q: And the pIC50 (MV4-11)?
A: Its pIC50 is 6.80.

Q: Which results are given for O=C(CCCCCCC(=O)Nc1nnc(-c2ccc(Br)o2)s1)NO?
A: pIC50 (PC-3 [4]): 6.06; pIC50 (MCF7 [8]): 6.06; pIC50 (SW-620 [6]): 6.06; pIC50 (ASPC1): 6.06

Q: CC(C)n1cnc2c(-c3cccc(OCCCCCCC(=O)NO)c3)nc(N3CCOCC3)nc21 was tested. Which IC50 (Histone deacetylase) did it give?
A: Its IC50 is 35 nM.

Q: What about the pIC50 (PC-3 [7]) of the same molecule?
A: Its pIC50 is 6.80.

Q: What about the pIC50 (MV4-11) of the same molecule?
A: The pIC50 was 6.80.

Q: What does the source list for O=C(CCC(=O)Nc1nnc(-c2ccc(O)cc2)s1)NO?
A: pIC50 (MDA-MB-231): 4.83; pIC50 (PC-3 [4]): 4.83; pIC50 (A549): 4.83; IC50 (Histone deacetylase): 200 nM; pIC50 (K562): 4.83

Q: With CCCCCSc1ncc(C(=O)NO)c(N(Cc2ccccc2)S(=O)(=O)c2ccc(F)cc2)n1 as the molecule, how does the pIC50 (RPMI-8226) read?
A: Its pIC50 is less than 5.25.

Q: With Cc1ccc2c(=O)n(Cc3ccc(/C=C/C(=O)NO)cc3)cnc2c1 as the molecule, how does the “Ratio IC50” value (NCI-H23 [1]) read?
A: The value was greater than 3.

Q: And the “Ratio IC50” value (SW-620 [2])?
A: The value was greater than 3.

Q: And the pIC50 (NCI-H23 [3])?
A: Its pIC50 is 6.21.

Q: What about the pIC50 (PC-3 [4]) of the same molecule?
A: The pIC50 was 6.21.

Q: And the IC50 (Histone deacetylase)?
A: The IC50 was 170 nM.

Q: What about the “Ratio IC50” value (PC-3 [5]) of the same molecule?
A: Its value is greater than 3.

Q: What about the pIC50 (SW-620 [6]) of the same molecule?
A: Its pIC50 is 6.21.

Q: CC(C)n1cnc2c(-c3cccc(COCCCCCCC(=O)NO)c3)nc(N3CCOCC3)nc21 was tested. Which IC50 (Histone deacetylase) did it give?
A: Its IC50 is 35 nM.

Q: And the pIC50 (PC-3 [7])?
A: The pIC50 was 6.80.

Q: What about the pIC50 (MV4-11) of the same molecule?
A: The pIC50 was 6.80.

Q: With CC(C)n1cnc2c(-c3cccc(COCC(=O)NO)c3)nc(N3CCOCC3)nc21 as the molecule, how does the IC50 (Histone deacetylase) read?
A: The IC50 was 35 nM.

Q: What about the pIC50 (PC-3 [7]) of the same molecule?
A: The pIC50 was 6.80.

Q: And the pIC50 (MV4-11)?
A: Its pIC50 is 6.80.

Q: CCCCCSc1ncc(C(=O)NO)c(N(Cc2ccccc2)S(=O)(=O)c2cccc(OC)c2)n1 was tested. Which pIC50 (RPMI-8226) did it give?
A: The pIC50 was less than 5.25.

Q: How did the pIC50 (MCF7 [8]) turn out when O=C(CCCCCCCn1cnc2c(c1=O)C1CCCCC1S2)NO (stereo unspecified) was run?
A: Its pIC50 is 5.48.

Q: And the pIC50 (HCT-116)?
A: Its pIC50 is 5.48.

Q: And the pIC50 (HepG2 [9])?
A: The pIC50 was 5.48.

Q: With O=C(Cn1cnc2c(c1=O)C1CCCCC1S2)NCc1ccc(C(=O)NO)cc1 (stereo unspecified) as the molecule, how does the pIC50 (MCF7 [8]) read?
A: Its pIC50 is 5.31.

Q: And the pIC50 (HCT-116)?
A: Its pIC50 is 5.31.

Q: What about the pIC50 (HepG2 [9]) of the same molecule?
A: Its pIC50 is 5.31.

Q: What does the source list for CC(C)n1cnc2c(-c3ccc(OCC(=O)NO)cc3)nc(N3CCOCC3)nc21?
A: IC50 (Histone deacetylase): 278 nM; pIC50 (PC-3 [7]): 6.01; pIC50 (MV4-11): 6.01

Q: What does the source list for COc1cc2ncn(Cc3ccc(C(=O)NO)cc3)c(=O)c2cc1OC?
A: Ratio IC50 (NCI-H23 [1]): >3; Ratio IC50 (SW-620 [2]): >3; pIC50 (NCI-H23 [3]): 6.21; pIC50 (PC-3 [4]): 6.21; IC50 (Histone deacetylase): 370 nM; Ratio IC50 (PC-3 [5]): >3; pIC50 (SW-620 [6]): 6.21

Q: CC(C)n1cnc2c(-c3ccc(COCCCCCCCC(=O)NO)cc3)nc(N3CCOCC3)nc21 was tested. Which IC50 (Histone deacetylase) did it give?
A: The IC50 was 278 nM.

Q: And the pIC50 (PC-3 [7])?
A: Its pIC50 is 6.01.

Q: What about the pIC50 (MV4-11) of the same molecule?
A: The pIC50 was 6.01.

Q: With COc1cc(NC(C)CCCNC(=O)CCC(=O)NO)c2ncccc2c1 (stereo unspecified) as the molecule, how does the pIC50 (HepG2 [10]) read?
A: The pIC50 was 5.80.

Q: What about the pIC50 (MCF7 [11]) of the same molecule?
A: The pIC50 was 5.80.

Q: And the pIC50 (U2OS)?
A: Its pIC50 is 5.80.

Q: How did the pIC50 (MCF7 [8]) turn out when O=C(Cn1cnc2c(c1=O)C1CCCCC1S2)Nc1ccc(C(=O)NO)cc1 (stereo unspecified) was run?
A: Its pIC50 is 5.31.

Q: And the pIC50 (HCT-116)?
A: The pIC50 was 5.31.

Q: What about the pIC50 (HepG2 [9]) of the same molecule?
A: The pIC50 was 5.31.

Q: With CC(C)n1cnc2c(-c3cccc(COCCCCC(=O)NO)c3)nc(N3CCOCC3)nc21 as the molecule, how does the IC50 (Histone deacetylase) read?
A: Its IC50 is 35 nM.

Q: What about the pIC50 (PC-3 [7]) of the same molecule?
A: The pIC50 was 6.80.

Q: And the pIC50 (MV4-11)?
A: Its pIC50 is 6.80.

Q: Cc1ccc(-c2nnc(NC(=O)CCCCCCC(=O)NO)s2)s1 was tested. Which pIC50 (PC-3 [4]) did it give?
A: The pIC50 was 6.06.

Q: And the pIC50 (MCF7 [8])?
A: Its pIC50 is 6.06.

Q: What about the pIC50 (SW-620 [6]) of the same molecule?
A: The pIC50 was 6.06.

Q: And the pIC50 (ASPC1)?
A: The pIC50 was 6.06.

Q: How did the IC50 (Histone deacetylase) turn out when CC(C)n1cnc2c(-c3cccc(COCCCCCCCC(=O)NO)c3)nc(N3CCOCC3)nc21 was run?
A: The IC50 was 35 nM.

Q: And the pIC50 (PC-3 [7])?
A: Its pIC50 is 6.80.

Q: And the pIC50 (MV4-11)?
A: The pIC50 was 6.80.

Q: How did the pIC50 (PC-3 [4]) turn out when O=C(CCCCCCC(=O)Nc1nnc(-c2ccco2)s1)NO was run?
A: The pIC50 was 6.06.

Q: What about the pIC50 (MCF7 [8]) of the same molecule?
A: Its pIC50 is 6.06.

Q: And the pIC50 (SW-620 [6])?
A: Its pIC50 is 6.06.

Q: And the pIC50 (ASPC1)?
A: Its pIC50 is 6.06.

Q: CC(C)n1cnc2c(-c3ccc(COCCCCC(=O)NO)cc3)nc(N3CCOCC3)nc21 was tested. Which IC50 (Histone deacetylase) did it give?
A: Its IC50 is 278 nM.

Q: What about the pIC50 (PC-3 [7]) of the same molecule?
A: Its pIC50 is 6.01.

Q: What about the pIC50 (MV4-11) of the same molecule?
A: The pIC50 was 6.01.

Q: Which IC50 (Histone deacetylase) does the source give for CC(C)n1cnc2c(-c3ccc(COCC(=O)NO)cc3)nc(N3CCOCC3)nc21 here?
A: Its IC50 is 278 nM.

Q: And the pIC50 (PC-3 [7])?
A: The pIC50 was 6.01.

Q: What about the pIC50 (MV4-11) of the same molecule?
A: Its pIC50 is 6.01.

Q: O=C(CCCCCCn1cnc2c(c1=O)C1CCCCC1S2)NO (stereo unspecified) was tested. Which pIC50 (MCF7 [8]) did it give?
A: Its pIC50 is 5.48.

Q: What about the pIC50 (HCT-116) of the same molecule?
A: Its pIC50 is 5.48.

Q: And the pIC50 (HepG2 [9])?
A: The pIC50 was 5.48.
